“Also recorded” adds a separate entry of the source. Where a SMILES comes first, the peptide text is derived from it. [ ]: non-standard residue; d: D form. The star is where a group is joined. Biotin = O=C1N[C@H]2[C@H](CS[C@H]2CCCCC(=O)*)N1; pY = N[C@@H](Cc1ccc(OP(=O)(O)O)cc1)C(=O)O; Ahx = NCCCCCC(=O)O
Tests used:
STAT3 [1] = biological target: T1, STAT3 (Mus musculus, UniProt P42227); assay: Precipitation of STAT3 from BaMR cytosolic homogenates with biotinylated IL-10 receptor peptides; format: binding; settings: for precipitation of / binding to the 92 kD STAT3 protein: biotinylated 12 amino acid peptides, BaMR cytosolic homogenates; for concentration of biotinylated peptide sufficient to precipitate STAT3 (comparable amounts): increasing peptide concentrations, data not shown
T1 construct: Cytosolic homogenates of BaMR cells were precipitated with the biotinylated 12 amino acid peptides; endogenous in cells; host or cells: BaMR (BaF3 pre-B cells transfected with the IL-10 receptor) homogenates
Description: Aminoterminally biotinylated peptides were synthesized comprising 12 amino acids in which the peptides each contained a different region of the IL-10 receptor intracellular domain containing a tyrosine residue. These peptides corresponded to positions 370 to 381 (SEQ ID NO:26, Gln-Gln-Leu-Gly-Xaa-His-Gln-Asp-Gln-Asp-Asp-Ser), 392-403 (SEQ ID NO:27, Gly-Gln-Pro-Lys-Xaa-Thr-Gln-Asp-Ala-Ser-Asp-Leu), 423 to 434 (SEQ ID NO:24, Thr-Phe-Gln-Gly-Xaa-Gln-Lys-Gln-Thr-Arg-Trp-Lys) and 473 to 484 (SEQ ID NO:25, Leu-Ala-Ala-Gly-Xaa-Leu-Lys-Gln-Glu-Ser-Gln-Gly) in which the amino acids identified in the sequence as Xaa in positions 374, 396, 427, and 477 of the respectively peptides are phosphorylated tyrosines. In addition, the sequences 423 to 434 (SEQ ID NO:28, Thr-Phe-Gln-Gly-Tyr-Gln-Lys-Gln-Thr-Arg-Trp-Lys) and 473 to 484 (SEQ ID NO:29, Leu-Ala-Ala-Gly-Tyr-Leu-Lys-Gln-Glu-Ser-Gln-Gly) contained the non-phosphorylated tyrosines in the positions 427, and 477 of the IL-10 receptor intracellular domain. Cytosolic homogenates of BaMR cells were precipitated with the biotinylated 12 amino acid peptides. […] In contrast to this, no binding to the STAT3 transcription factor occurred with the peptides containing phosphorylated tyrosines in positions 374 (SEQ ID NO:26) and 396 (SEQ ID NO:27), the peptides containing non-phosphorylated tyrosines in positions 427 (SEQ ID NO:28) and 477 (SEQ ID NO:29) and the phosphorylated peptide corresponding to the amino acid sequences 436 to 447 of the IFNγ receptor α chain intracellular domain (FIG. 10). Whereas both the 427 and the 477 phosphopeptides precipitated the STAT3 transcription factor, none of the phosphopeptides coprecipitated STAT1.

IFNγ receptor α chain = assay: IFNγ dependent tyrosine phosphorylation of the IFNγ receptor α chain in Colo-205 cells (4G10 western blot); format: cell-based, human; settings: Colo-205 treated for 5 minutes
Description: For these experiments, Colo-205, a human adenocarcinoma cell line obtained from the ATCC, was used because it was known to express a high number of IFNγ receptors (10,000 receptors/cell) and has been well characterized with regard to both biologic responsiveness to IFNγ and IFNγ receptor […] phosphorylation (Hershey and Schreiber, 1989; Hershey et al., 1990 both of which are incorporated by reference). Colo-205 cells (5-10×10^7) were resuspended in one ml of PBS-10% FCS and were then incubated at 37° C., either in the presence or absence of rHuIFNγ (10,000 IRU). Purified recombinant human IFNγ was provided by Dr. Susan Kramer of Genentech, Inc. (South San Francisco, Calif.). […] Purified rHuIFNγ was radioiodinated, using Bolton Hunter reagent (ICN Chemicals, Radioisotope Division, Irvine, Calif.) to specific activities of 6.5-17.8 μCi/μg as described in Celada et al. (J Clin Invest 76:2196-2205, 1985 which is incorporated by reference). The reaction was stopped by adding 4 mls of ice-cold PBS. Cells were pelleted, washed once in ice-cold PBS, and then lysed in one ml of lysis buffer (25 mM Tris-HCl (pH 8.0), 1% NP-40, 150 mM NaCl, 1 mM sodium orthovanadate, 10 mM NaF, 1 mM PMSF, 5mM iodoacetamide, […] leupeptin and aprotinin). Solubilized cells were centrifuged at 15,000×g to remove cell nuclei and the supernatants were then incubated with 10 μg of GIR-94 for 30 minutes at 4° C. Protein G sepharose was added to the reaction mixture and the incubation continued for an additional 30 minutes. […]
To determine the amount of receptor precipitated at each time point, aliquots from each immunoprecipitate were subjected to western blot analysis using a monoclonal antibody (GIR-94, a murine antibody IgG2b) that is specific for the human IFNγ receptor extracellular domain. In the absence of added IFNγ, no tyrosine phosphorylated receptor was detected (FIG. 1, lane 1). […]

STAT3 [2] = biological target: T1, STAT3; assay: Inhibition of IL-10 dependent STAT3 phosphorylation in BaMR cell homogenates; format: biochemical; settings: for effect on IL-10 dependent phosphorylation of STAT3: peptide 100 μM, 45 minutes at 4° C., then 100 ng/ml IL-10
Experimental: BaMR cell homogenates were prepared in a Dounce homogenizer and 18 μg of total protein was incubated without or with IL-10 at a concentration of 100 ng/ml for 15 minutes at 37° C. (FIG. 11, lanes 1 and 2). In lanes 3-8, 18 μg total protein of the BaMR homogenates was incubated for 45 minutes at 4° C. with a 100 μM concentration of the IL-10-receptor peptides having phosphorylated tyrosines at positions 374 (SEQ ID NO:26), 396 (SEQ ID NO:27), 427(SEQ ID NO:24), and 477(SEQ ID NO:25) (lanes 3-6) or 100 μM concentration of the non phosphorylated peptides having tyrosines at positions 427 (SEQ ID NO:28) and 477 (SEQ ID NO:29). Reaction mixtures were stimulated with 100 ng/ml IL-10 as described above and homogenates were precipitated with STAT3 or STAT1 specific antisera. Precipitates were blotted with phosphotyrosine specific antibody RC-20 and reactions developed using the ECL-system. Blots were stripped and reblotted with STAT3 and STAT1 specific antisera, respectively.

T1 sequence (P42227 whole entry): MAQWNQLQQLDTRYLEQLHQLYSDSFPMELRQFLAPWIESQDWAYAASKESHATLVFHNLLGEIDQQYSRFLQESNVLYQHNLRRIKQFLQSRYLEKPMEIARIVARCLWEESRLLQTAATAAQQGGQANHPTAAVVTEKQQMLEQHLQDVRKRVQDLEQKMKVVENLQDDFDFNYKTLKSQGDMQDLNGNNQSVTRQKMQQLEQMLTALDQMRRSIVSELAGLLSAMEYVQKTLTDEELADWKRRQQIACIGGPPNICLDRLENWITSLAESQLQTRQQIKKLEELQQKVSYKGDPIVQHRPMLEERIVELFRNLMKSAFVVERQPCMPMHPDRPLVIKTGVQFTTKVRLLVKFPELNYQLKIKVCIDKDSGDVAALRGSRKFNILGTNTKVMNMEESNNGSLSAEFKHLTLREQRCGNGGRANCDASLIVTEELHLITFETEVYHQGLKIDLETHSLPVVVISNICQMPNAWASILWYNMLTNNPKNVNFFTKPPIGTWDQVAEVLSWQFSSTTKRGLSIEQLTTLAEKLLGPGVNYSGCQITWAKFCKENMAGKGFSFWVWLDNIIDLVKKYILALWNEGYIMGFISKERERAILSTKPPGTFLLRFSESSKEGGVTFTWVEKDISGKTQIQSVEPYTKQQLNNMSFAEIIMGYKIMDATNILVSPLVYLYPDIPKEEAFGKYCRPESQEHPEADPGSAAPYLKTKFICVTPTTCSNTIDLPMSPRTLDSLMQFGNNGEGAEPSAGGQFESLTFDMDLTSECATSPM

Compound | precipitation of / binding to the 92 kD STAT3 protein (STAT3 [1]) | further results
rHuIFNγ: Purified recombinant human IFNγ provided by Genentech, Inc. |  | IFNγ dose at which IFNγ receptor tyrosine phosphorylation reached maximal levels (IFNγ receptor α chain): 10,000 IRU/ml; IFNγ dose at which IFNγ receptor tyrosine phosphorylation was detected (IFNγ receptor α chain): 100 IRU/ml
Leu-Ala-Ala-Gly-Xaa-Leu-Lys-Gln-Glu-Ser-Gln-Gly [SEQ ID NO:25] | specifically precipitated; also recorded: coprecipitated | concentration of biotinylated peptide sufficient to precipitate STAT3 (comparable amounts) (STAT3 [1]): 4 to 20 µM; effect on IL-10 dependent phosphorylation of STAT3 (STAT3 [2]): specifically inhibited
CC(C)C[C@H](NC(=O)[C@@H](NC(=O)[C@H](Cc1c[nH]cn1)NC(=O)[C@@H]1CCCN1C(=O)[C@H](CCCCN)NC(=O)[C@H](CC(=O)O)NC(=O)[C@H](Cc1ccc(OP(=O)(O)O)cc1)NC(=O)CNC(=O)[C@H](Cc1ccccc1)NC(=O)[C@H](CO)NC(=O)[C@@H](NC(=O)CCCCCNC(=O)CCCC[C@@H]1SC[C@@H]2NC(=O)N[C@@H]21)[C@@H](C)O)C(C)C)C(=O)N[C@H](C(=O)O)C(C)C [SEQ ID NO:4, Biotin-TSFGY-PO4 DKPHVLV] ({Biotin-Ahx}-TSFG[pY]DKPHVLV-OH) | no binding | 
Thr-Phe-Gln-Gly-Xaa-Gln-Lys-Gln-Thr-Arg-Trp-Lys [SEQ ID NO:24] | specifically precipitated; also recorded: coprecipitated | concentration of biotinylated peptide sufficient to precipitate STAT3 (comparable amounts) (STAT3 [1]): 0.8 µM; potency in inhibiting STAT3 phosphorylation relative to SEQ ID NO:25 (STAT3 [2]; concentration-dependent inhibition, FIG. 12): 5 to 10 fold; effect on IL-10 dependent phosphorylation of STAT3 (STAT3 [2]): specifically inhibited

Further lines, with some results ahead:

precipitation of / binding to the 92 kD STAT3 protein (STAT3 [1]) | Compound | further results
no binding | CC(C)C[C@H](NC(=O)CCCCCNC(=O)CCCC[C@@H]1SC[C@@H]2NC(=O)N[C@@H]21)C(=O)N[C@@H](C)C(=O)N[C@@H](C)C(=O)NCC(=O)N[C@@H](Cc1ccc(O)cc1)C(=O)N[C@@H](CC(C)C)C(=O)N[C@@H](CCCCN)C(=O)N[C@@H](CCC(N)=O)C(=O)N[C@@H](CCC(=O)O)C(=O)N[C@@H](CO)C(=O)N[C@@H](CCC(N)=O)C(=O)NCC(=O)O [SEQ ID NO:29, Leu-Ala-Ala-Gly-Tyr-Leu-Lys-Gln-Glu-Ser-Gln-Gly] ({Biotin-Ahx}-LAAGYLKQESQG-OH) | 
no binding | CC(C)C[C@H](NC(=O)[C@H](CC(=O)O)NC(=O)[C@H](CO)NC(=O)[C@H](C)NC(=O)[C@H](CC(=O)O)NC(=O)[C@H](CCC(N)=O)NC(=O)[C@@H](NC(=O)[C@H](Cc1ccc(OP(=O)(O)O)cc1)NC(=O)[C@H](CCCCN)NC(=O)[C@@H]1CCCN1C(=O)[C@H](CCC(N)=O)NC(=O)CNC(=O)CCCCCNC(=O)CCCC[C@@H]1SC[C@@H]2NC(=O)N[C@@H]21)[C@@H](C)O)C(=O)O [SEQ ID NO:27, Gly-Gln-Pro-Lys-Xaa-Thr-Gln-Asp-Ala-Ser-Asp-Leu] ({Biotin-Ahx}-GQPK[pY]TQDASDL-OH) | 
no binding | C[C@@H](O)[C@H](NC(=O)CCCCCNC(=O)CCCC[C@@H]1SC[C@@H]2NC(=O)N[C@@H]21)C(=O)N[C@@H](Cc1ccccc1)C(=O)N[C@@H](CCC(N)=O)C(=O)NCC(=O)N[C@@H](Cc1ccc(O)cc1)C(=O)N[C@@H](CCC(N)=O)C(=O)N[C@@H](CCCCN)C(=O)N[C@@H](CCC(N)=O)C(=O)N[C@H](C(=O)N[C@@H](CCCNC(=N)N)C(=O)N[C@@H](Cc1c[nH]c2ccccc12)C(=O)N[C@@H](CCCCN)C(=O)O)[C@@H](C)O [SEQ ID NO:28, Thr-Phe-Gln-Gly-Tyr-Gln-Lys-Gln-Thr-Arg-Trp-Lys] ({Biotin-Ahx}-TFQGYQKQTRWK-OH) | 
no binding | CC(C)C[C@H](NC(=O)[C@H](CCC(N)=O)NC(=O)[C@H](CCC(N)=O)NC(=O)CCCCCNC(=O)CCCC[C@@H]1SC[C@@H]2NC(=O)N[C@@H]21)C(=O)NCC(=O)N[C@@H](Cc1ccc(OP(=O)(O)O)cc1)C(=O)N[C@@H](Cc1c[nH]cn1)C(=O)N[C@@H](CCC(N)=O)C(=O)N[C@@H](CC(=O)O)C(=O)N[C@@H](CCC(N)=O)C(=O)N[C@@H](CC(=O)O)C(=O)N[C@@H](CC(=O)O)C(=O)N[C@@H](CO)C(=O)O [SEQ ID NO:26, Gln-Gln-Leu-Gly-Xaa-His-Gln-Asp-Gln-Asp-Asp-Ser] ({Biotin-Ahx}-QQLG[pY]HQDQDDS-OH) | 

Source: patent US5731155A, “Compositions for inhibition of intracellular transcription factors and methods therefor” (Washington University, priority 1996, dated 1998)
